Measured values published in patent US20250353873A1, “COMPOUNDS AND METHODS FOR MODULATING APOE EXPRESSION” (Ionis Pharmaceuticals, Inc., priority 2024, published 2025).
Several values for one entry are separate records, joined by “and”; a condition that tells them apart may be missing. Identical values can stand only once. Strand notation (5' to 3'): a small letter for the sugar, then the base; units joined by * are phosphorothioate-linked, units joined directly phosphodiester-linked; [ ] holds rarer units or linkages, { } end groups; capitals alone tell only the bases. [ms] = mesyl phosphoramidate linkage; e = 2'-O-(2-methoxyethyl) (MOE); [5mC] = 5-methylcytosine; d = 2'-deoxy (DNA)

Assays:
human APOE RNA [1] = assay: Activity in APOE C57BL/6NTac-Apoeem7250 knock-in mice, single ICV bolus, 20 weeks (Example 13); assay type: in vivo; details: single ICV bolus 300 μg, 20 weeks post treatment, normalized to mouse Ppia
Method in brief: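 Cortical and spinal cord RNA was assayed by real-time RT-PCR for human APOE, normalized to mouse Ppia and reported as percent of PBS controls. Tissue was taken twenty weeks after one 300 μg intracerebroventricular bolus in APOE knock-in mice, 4 per group.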

human APOE RNA [2] = assay: Activity in APOE C57BL/6NTac-Apoeem7250 knock-in mice, single ICV bolus, 8 weeks (Example 11); assay type: in vivo; details: for reduction of human APOE RNA in the cortex: APOE knock-in mouse model, 8 weeks post administration, assay of Example 11; for APOE RNA (% control) Cortex / APOE RNA (% control) Spinal Cord: single ICV bolus 300 μg, 8 weeks post treatment, normalized to mouse Ppia
Method in brief: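 Cortical and spinal cord human APOE RNA quantified by RT-qPCR 8 weeks after a single 300 μg ICV dose in knock-in mice, Ppia-normalized. Values are percent of levels in PBS-treated animals.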

human APOE RNA [3] = assay: Activity in APOE 1549 knock-in mice, single ICV bolus, 2 weeks (Example 7); assay type: in vivo; details: single ICV bolus of 300 μg, two weeks post treatment
Experimental: Modified oligonucleotides described above were tested in APOE knock-in mice.
APOE knock-in mice (model 41549) were obtained from Taconic Biosciences. APOE knock-in mice were divided into groups of 2 mice each. Each mouse received a single intracerebroventricular (ICV) bolus of 300 μg of modified oligonucleotide. A group of 4 mice received a single ICV bolus with PBS as a negative control.
Two weeks post treatment, mice were sacrificed and RNA was extracted from cortical brain tissue and spinal cord for quantitative real-time RT-PCR analysis of RNA expression of APOE using primer probe set RTS3073 (described herein above). APOE RNA levels were normalized to mouse Ppia. Mouse Ppia was amplified using primer probe set m_cyclo24 (forward sequence TCGCCGCTTGCTGCA, designated herein as SEQ ID NO: 16; reverse sequence ATCGGCCGTGATGTCGA, designated herein as SEQ ID NO: 17; probe sequence […], designated herein as SEQ ID NO: 18). Results are presented as percent human APOE RNA relative to the amount of human APOE RNA in PBS treated animals, (% control). Each experiment is identified in separate tables below.

human APOE RNA [4] = assay: Dose-dependent inhibition of human APOE RNA in HepG2 cells, electroporation, 50,000 cells per well, RT-PCR normalized to GAPDH (Example 4, Tables 8-10); assay type: cell-based; details: HepG2, electroporation, 16-hour treatment
Method in brief: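 Readout is percent APOE RNA versus untreated controls, measured by RT-PCR (primer probe set RTS3073) and normalized to human GAPDH. Modified oligonucleotides were delivered by electroporation at varying doses into HepG2 cells plated at 50,000 per well.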

human APOE RNA [5] = assay: Activity in APOE C57BL/6NTac-Apoeem7250 knock-in mice, single ICV bolus, 16 weeks (Example 12); assay type: in vivo; details: single ICV bolus 300 μg, 16 weeks post treatment, normalized to mouse Ppia
Method in brief: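 A single 300 μg intracerebroventricular dose was given, with PBS-treated mice as reference; cortical and spinal cord tissue was taken 16 weeks later. RT-qPCR quantified human APOE RNA, Ppia-normalized, expressed relative to PBS animals (% control).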

human APOE RNA [6] = assay: Activity in APOE C57BL/6NTac-Apoeem7250 knock-in mice, single ICV bolus, 2 weeks (Example 9); assay type: in vivo; details: single ICV bolus 300 μg
Experimental: Modified oligonucleotides described above were tested in the APOE knock-in mouse model C57BL/6NTac-Apoeem7250_B-A02(APOE)Tac, a heterozygous APOE mouse model. APOE knock-in mice used in this study express the full-length human APOE gene knocked into the mouse locus. Humanization of APOE gene was done via CRISPR/Cas-9-mediated gene editing, allowing for generation of a model with constitutive expression of human APOE gene. Targeting strategy was based on NCBI transcripts NM_009696.4 (mouse) and NM_000041.4 (human). Mouse genomic sequence from exon 1 to exon 4 (including the 5′ and 3′ UTRs) was replaced with the human counterpart from 141 bp upstream of exon 1 to 28 bp downstream of exon 4. A plasmid allowing expression of Cas9 mRNA, specific gRNA, and the puromycin resistance cassette, and a plasmid containing the homology regions of the mouse APOE gene, and the replaced human region were co-transfected into the Taconic Biosciences C57BL/6N Tac ES cell line. Homologous recombination clones were isolated using positive puromycin selection, and humanized allele was obtained after Cas9-mediated gene editing. C57BL/6NTac-Apoeem7250_B-A02(APOE)Tac mice were used in the in vivo experiments described below.
APOE C57BL/6NTac-Apoeem7250 knock-in mice were divided into groups of 3 mice each. Each mouse received a single ICV bolus of 300 μg of modified oligonucleotide. A group of 3 mice received a single ICV bolus with PBS as a negative control.
Two weeks post treatment, mice were sacrificed and RNA was extracted from cortical brain tissue and spinal cord for quantitative real-time RT-PCR analysis of RNA expression of APOE using human primer probe set RTS3073 (described herein above). APOE RNA levels were normalized to mouse Ppia. Mouse Ppia was amplified using primer probe set m_cyclo24 (described herein above). Results are presented as percent human APOE RNA relative to the amount of human APOE RNA in PBS treated animals, (% control).

human APOE RNA [7] = assay: Dose-dependent inhibition of human APOE RNA in HepG2 cells, electroporation, 24 hours (Example 6); assay type: cell-based
Method in brief: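 IC50 derived from APOE RNA levels, given as percent of untreated control after GAPDH normalization (probe sets RTS3073 and RTS104). Oligonucleotides were delivered at multiple concentrations by electroporation into HepG2 cells seeded at 50,000 per well.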

human APOE RNA [8] = assay: Activity in APOE C57BL/6NTac-Apoeem7250 knock-in mice, single ICV bolus, 4 weeks (Example 10); assay type: in vivo; details: single ICV bolus 300 μg
Method in brief: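 Human APOE RNA, quantified by real-time RT-PCR with RTS3073 and normalized to mouse Ppia, was read in cortical brain and spinal cord 4 weeks post dosing. Dosing was a single ICV bolus of 300 μg per knock-in mouse; values are % of PBS-treated animals.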

Experimental for BJAB cells: Human APOE modified oligonucleotides were tested for potential immunostimulatory properties in an in vitro human BJAB activation assay.
Human Burkitt lymphoma B cells, BJAB cells (DSMZ, Cat #ACC 757) were cultured in RPMI1640 medium containing 20% fetal bovine serum at 37° C. and 5% CO2. Cells were maintained at a density of 0.5-0.7×10^6 cells per milliliter. Cells were transferred to 50 mL conical Falcon tubes and centrifuged at 330 RCF for 5 minutes before being resuspended at a concentration of 7.5×10^4 cells per milliliter in RPMI culture medium containing penicillin and streptomycin. 50 μL of the cell suspension was added to a v-bottom tissue culture treated 96-well microplate. 11 μl of 10× concentrated modified oligonucleotides was then added to the plate for a final concentration of 1.6 μM and incubated for 24 hours at 37° C. and 5% CO2.
After a treatment period of 24 hours, total RNA was isolated from the cells and CCL22 RNA levels were measured by quantitative real-time RT-PCR. CCL22 RNA levels were measured by human primer-probe set RTS49260 (forward sequence [sequence], designated herein as SEQ ID NO: 19; reverse sequence [sequence], designated herein as SEQ ID NO: 20; probe sequence [sequence], designated herein as SEQ ID NO: 21). CCL22 RNA levels were normalized to total RNA content, as measured by GAPDH. Human GAPDH was measured using the human primer-probe set RTS104 (forward sequence [sequence], designated herein as SEQ ID NO: 10; reverse sequence [sequence], designated herein as SEQ ID NO: 11; probe sequence [sequence], designated herein as SEQ ID NO: 12). Levels of CCL22 RNA is presented log fold increase of CCL22, relative to untreated control cells (UTC). The assignment of the immunostimulatory properties of the test compounds is based on the immunostimulatory properties of the internal control compounds in each assay.

Substance: Compound No. 1517891: comparator of WO 2022/066956; ACTTGGTGAATCTTTATTAA, sugar eeeeeddddddddddeeeee, linkages sooosssssssssssooss (MOE gapmer, mixed PS/PO linkages, chemistry not fully specified) [reference compound]
- APOE RNA (% control) Cortex (human APOE RNA [1]): 93 % control and 97 % control
- APOE RNA (% control) Spinal Cord (human APOE RNA [1]): 92 % control and 71 % control
- reduction of human APOE RNA in the cortex (human APOE RNA [2]): 44%
- APOE RNA (% control) Cortex (human APOE RNA [2]): 56 % control
- APOE RNA (% control) Spinal Cord (human APOE RNA [2]): 29 % control
- APOE RNA (% control) Cortex (human APOE RNA [3]; Table 16): 49 % control
- APOE RNA (% control) Spinal Cord (human APOE RNA [3]; Table 16): 65 % control
- inflammatory response in human BJAB cells (BJAB cells): mildly inflammatory
- APOE RNA (% UTC) (human APOE RNA [4]; 5 nM): 82 % UTC
- APOE RNA (% UTC) (human APOE RNA [4]; 13 nM): 75 % UTC
- APOE RNA (% UTC) (human APOE RNA [4]; 33 nM): 81 % UTC
- APOE RNA (% UTC) (human APOE RNA [4]; 82 nM): 83 % UTC
- APOE RNA (% UTC) (human APOE RNA [4]; 205 nM): 65 % UTC
- APOE RNA (% UTC) (human APOE RNA [4]; 512 nM): 48 % UTC
- APOE RNA (% UTC) (human APOE RNA [4]; 1,280 nM): 36 % UTC
- APOE RNA (% UTC) (human APOE RNA [4]; 3,200 nM): 36 % UTC
- APOE RNA (% UTC) (human APOE RNA [4]; 8,000 nM): 17 % UTC
- IC50 (human APOE RNA [4]): 550 nM

Substance: 1693101: 6-10-4 MOE gapmer CTTGGTGAATCTTTATTAAA, linkages sssssozzzssssszssss (e[5mC]*eT*eT*eG*eG*eTdG[ms]dA[ms]dA[ms]dT*d[5mC]*dT*dT*dT*dA[ms]dT*eT*eA*eA*eA) [compound 1693101]
- APOE RNA (% control) Cortex (human APOE RNA [5]; cortex): 71 % control
- APOE RNA (% control) Spinal Cord (human APOE RNA [5]; spinal cord): 56 % control
- APOE RNA (% control) Cortex (human APOE RNA [6]; Cortex): 62 % control
- APOE RNA (% control) Spinal Cord (human APOE RNA [6]; Spinal Cord): 55 % control
- APOE RNA (% control) Cortex (human APOE RNA [2]): 58 % control
- APOE RNA (% control) Spinal Cord (human APOE RNA [2]): 46 % control
- APOE RNA (% control) Cortex (human APOE RNA [3]; Table 17): 79 % control
- APOE RNA (% control) Spinal Cord (human APOE RNA [3]; Table 17): 57 % control
- IC50 (human APOE RNA [7]): 4.03 µM
- APOE RNA (% UTC) (human APOE RNA [7]; 5 nM): 70 % UTC
- APOE RNA (% UTC) (human APOE RNA [7]; 13 nM): 91 % UTC
- APOE RNA (% UTC) (human APOE RNA [7]; 33 nM): 120 % UTC
- APOE RNA (% UTC) (human APOE RNA [7]; 82 nM): 111 % UTC
- APOE RNA (% UTC) (human APOE RNA [7]; 205 nM): 95 % UTC
- APOE RNA (% UTC) (human APOE RNA [7]; 512 nM): 75 % UTC
- APOE RNA (% UTC) (human APOE RNA [7]; 1,280 nM): 53 % UTC
- APOE RNA (% UTC) (human APOE RNA [7]; 3,200 nM): 58 % UTC
- APOE RNA (% UTC) (human APOE RNA [7]; 8,000 nM): 49 % UTC
- APOE RNA (% UTC) (human APOE RNA [7]; 20,000 nM): 20 % UTC
- APOE RNA (% control) Cortex (human APOE RNA [8]; Cortex, C57BL/6NTac-Apoeem7250 knock-in mice, 4 weeks (Table 21)): 71 % control
- APOE RNA (% control) Cortex (human APOE RNA [8]; Cortex, C57BL/6NTac-Apoeem7250 knock-in mice, 4 weeks (Table 22)): 57 % control
- APOE RNA (% control) Spinal Cord (human APOE RNA [8]; Spinal Cord, C57BL/6NTac-Apoeem7250 knock-in mice, 4 weeks (Table 21)): 50 % control
- APOE RNA (% control) Spinal Cord (human APOE RNA [8]; Spinal Cord, C57BL/6NTac-Apoeem7250 knock-in mice, 4 weeks (Table 22)): 77 % control
- APOE RNA (% control) Cortex (human APOE RNA [8]; cortex, 4 weeks post treatment, normalized to mouse Ppia): 57 % control
- APOE RNA (% control) Spinal Cord (human APOE RNA [8]; spinal cord, 4 weeks post treatment, normalized to mouse Ppia): 56 % control

Substance: Compound No. 1517853: comparator of WO 2022/066956; TTGGTGAATCTTTATTAAAC, sugar eeeeeddddddddddeeeee, linkages sooosssssssssssooss (MOE gapmer, mixed PS/PO linkages, chemistry not fully specified) [reference compound]
- APOE RNA (% control) Cortex (human APOE RNA [1]): 99 % control
- APOE RNA (% control) Spinal Cord (human APOE RNA [1]): 98 % control
- reduction of human APOE RNA in the cortex (human APOE RNA [2]): 33%
- APOE RNA (% control) Cortex (human APOE RNA [2]): 67 % control
- APOE RNA (% control) Spinal Cord (human APOE RNA [2]): 50 % control
- APOE RNA (% control) Cortex (human APOE RNA [3]; Table 16): 53 % control
- APOE RNA (% control) Spinal Cord (human APOE RNA [3]; Table 16): 65 % control
- inflammatory response in human BJAB cells (BJAB cells): highly inflammatory
